# US8614250B2 (Industry-Academic Cooperation Foundation, Yonsei University, priority 2011, dated 2013)
# Marks after values point to notes of the source that are not given here.
# What was measured:
# [1] = rat; ketosis caused by long-chain and short-chain monocarboxylic acids; cited from earlier work
# [2] = Body weight gain, food intake and visceral fat-pad weights in mice fed high-fat diet supplemented with adipic acid; assay type: in vivo, C57BL/6J mice; conditions: 0.2% adipic acid in high-fat diet, 10 weeks
# Text: (§1) The obesity-inducing control diet used in the test was high-fat diet (HFD: 40% fat calorie, 17 g lard+3% corn oil/100 g diet). […] The normal diet group (Chow) was fed with commercially available rodent chow.
# (§2) 5-week-old male C57BL/6J mice (Orient, Korea) were accustomed to the laboratory environment for 1 week while feeding solid feed. Then, they were randomly divided into normal diet, high-fat diet and test groups and bred for a total of 10 weeks. The diet was given between 10 and 11 a.m. every day together with water. Food intake was measured every day and body weight was measured once a week. In order to avoid transient body weight increase after feed intake, body weight was measured 2 hours after removing the feed. After fasting the test animal for at least 12 hours and anesthetizing with diethyl ether, blood, liver and visceral fat (epididymal fat, perirenal fat, mesenteric fat and retroperitoneal fat) were taken and weighed after washing with 0.1 M PBS (pH 7.4). Blood taken from the abdominal aorta was centrifuged at 1000×g for 15 minutes for the separation of plasma.
# [3] = Biochemical analysis of blood (plasma lipids, glucose, ALT, AST) in mice fed test diets; assay type: in vivo, C57BL/6J mice; conditions: 10 weeks
# Text: as §1, §2
# After 10 weeks of breeding, total cholesterol, triglyceride and glucose levels in the plasma and lipid levels in the liver tissue were measured as follows. Total cholesterol, triglyceride, free fatty acid and glucose levels in the plasma were measured twice for each using a commercially available kit (Bio Clinical System). The activity of ALT (alanine aminotransferase) and AST (aspartate aminotransferase) used as liver function indicator were measured twice for each using a commercially available kit (Bio Clinical System, Korea).
# [4] = Liver weight and lipid level in liver tissues of mice fed test diets; assay type: in vivo, C57BL/6J mice; conditions: 10 weeks
# Text: as §1, §2
# Lipids were extracted from the liver tissue according to Folch et al.'s method Folch J et al., J Biol Chem. 226: 497-509 (1957)). After adding 1 mL of distilled water to 0.25 g of liver tissue, the liver tissue was homogenized using a Polytron homogenizer (IKA-Werke GmbH & Co., Ultra-Turrax, Staufen, Germany). After adding 5 mL of chloroform:methanol solution (2:1, v/v) to the homogenate and mixing well, the mixture was centrifuged at 1000×g for 10 minutes. After adding 2 mL of chloroform:methanol solution (2:1, v/v) again to the supernatant, the same procedure was repeated to completely separate the lipid components of the liver. After adding 3 mL of chloroform:methanol:0.05% CaCl2 (3:48:47, v/v/v) solution to the remaining pellets and mixing well for 1 minute, followed by centrifugation at 1000×g for 10 minutes, the resulting pellets were completely dried with nitrogen gas. The dried lipids were dissolved in 1 mL of methanol and then analyzed.
# The same kit (Bio Clinical System) as that used for the plasma analysis was used to measure the triglyceride and cholesterol levels of the liver tissue.
# C/EBPα gene expression = assay: RT-PCR analysis of visceral fat tissues; assay type: in vivo, C57BL/6J mice; conditions: mRNA, versus HFD
# Method: (§3) After adding 1 mL of Trizol agent per 0.1 g of visceral fat tissues, the mixture was homogenized and centrifuged at 12,000×g for 10 min at 4° C. The supernatant was transferred to a new tube and 200 μl of chloroform was added to the tube, followed by vortexing. The same procedure was repeated twice and then the supernatant was transferred to a new tube, followed by addition of isopropanol and the supernatant at 1:1 ratio. The mixture was vigorously shaken 10 times and then incubated for 10 min at room temperature, followed by centrifugation at 12,000×g for 10 min at 4° C. to remove the supernatant. After adding 1 mL of 70% ethanol to the remaining pellet, it was centrifuged at 7,500×g for 5 min at 4° C. After removing the ethanol, the RNA pellet contained in the tube was dried for 5 min at 4° C. and dissolved in nuclease-free water. The RNA sample concentration was measured at a wavelength of 260 nm and 280 nm using a UV/VIS spectrophotometer (Beckman coulter, DU730) and the integrity of RNA sample was verified by agarose gel electrophoresis.
# (§4) The RNA sample obtained from the visceral fat tissues was transcribed using oligo dT primer and SuperScript reverse transcriptase (GIBCO BRL, Gaithersburg, Md., USA) to synthesize cDNA. The PCR amplification was performed using the cDNA as templates and primers complementary to cDNA 5′ and 3′ flanking sequence. The amplified products were resolved on agarose gel electrophoresis.
# IL-6 gene expression = assay: RT-PCR analysis of visceral fat tissues; assay type: in vivo, C57BL/6J mice; conditions: mRNA
# Method: as §3, §4
# TNF-α gene expression = assay: RT-PCR analysis of visceral fat tissues; assay type: in vivo, C57BL/6J mice; conditions: mRNA
# Method: as §3, §4
# aP2 gene expression = assay: RT-PCR analysis of visceral fat tissues; assay type: in vivo, C57BL/6J mice; conditions: mRNA, versus HFD
# Method: as §3, §4
# PPARγ2 gene expression = assay: RT-PCR analysis of visceral fat tissues; assay type: in vivo, C57BL/6J mice; conditions: mRNA, versus HFD
# Method: as §3, §4
# [5] = patients treated for 8 weeks; cited from earlier work
compound,measurement,setting,value
O=C(O)CCCCC(=O)O [adipic acid],effect on ketosis,[1],effective for improving ketosis
same,daily food intake,[2],no significant change
same,decrease of body weight gain as compared to HFD,[2],49%
same,epididymal fat-pad weight as compared to HFD,[2],significantly reduced
same,mesenteric fat-pad weight as compared to HFD,[2],significantly reduced
same,perirenal fat-pad weight as compared to HFD,[2],significantly reduced
same,reduction of total visceral fat weight as compared to HFD,[2],21%
same,retroperitoneal fat-pad weight as compared to HFD,[2],significantly reduced
same,decrease of plasma ALT activity as compared to HFD,[3],40%
same,decrease of plasma AST activity as compared to HFD,[3],27%
same,lower plasma free fatty acid level as compared to HFD,[3],32%
same,lower plasma total cholesterol level as compared to HFD,[3],24%
same,lower plasma triglyceride level as compared to HFD,[3],26%
same,reduction of fasting blood sugar level as compared to HFD,[3],25%
same,ALT,"[3]; plasma, mean ± SEM",7.9 ± 0.78^c IU/L
same,AST,"[3]; plasma, mean ± SEM",8.9 ± 0.28^b IU/L
same,Free fatty acid,"[3]; plasma, mean ± SEM",890 ± 56^c uEq/L
same,Total cholesterol,"[3]; plasma, mean ± SEM",2.66 ± 0.41^b mmol/L
same,Triglyceride,"[3]; plasma, mean ± SEM",0.89 ± 0.05^b mmol/L
same,Glucose,"[3]; plasma, fasted, mean ± SEM",6.6 ± 0.41^b mmol/L
same,decrease of cholesterol level in liver tissue as compared to HFD,[4],44%
same,decrease of free fatty acid level in liver tissue as compared to HFD,[4],37%
same,decrease of triglyceride level in liver tissue as compared to HFD,[4],26%
same,reduction of liver absolute weight as compared to HFD,[4],12%
same,expression of C/EBPα gene,C/EBPα gene expression,significantly decreased
same,HFD-induced elevation in the expression of IL-6,IL-6 gene expression,significantly reversed
same,HFD-induced elevation in the expression of TNF-α,TNF-α gene expression,significantly reversed
same,expression of aP2 gene,aP2 gene expression,significantly decreased
same,expression of PPARγ2 gene,PPARγ2 gene expression,significantly decreased
CCOC(=O)C1=C(COCCN)NC(C)=C(C(=O)OC)C1c1ccccc1Cl.O=C(O)CCCCC(=O)O (stereo not drawn) [amlodipine adipate],symptoms of hypertension,[5],alleviated symptoms of hypertension
